For the first assay, the target named is Beta-lactamase P99 (Enterobacter cloacae) (UniProt P05364). As to the kind of experiment: Inhibition of hydrolysis of nitrocefin after 5 min pre-incubation with P99 beta-lactamases (class C).
Beta-lactamase P99 (Enterobacter cloacae), sequence (P05364 whole entry, looked up): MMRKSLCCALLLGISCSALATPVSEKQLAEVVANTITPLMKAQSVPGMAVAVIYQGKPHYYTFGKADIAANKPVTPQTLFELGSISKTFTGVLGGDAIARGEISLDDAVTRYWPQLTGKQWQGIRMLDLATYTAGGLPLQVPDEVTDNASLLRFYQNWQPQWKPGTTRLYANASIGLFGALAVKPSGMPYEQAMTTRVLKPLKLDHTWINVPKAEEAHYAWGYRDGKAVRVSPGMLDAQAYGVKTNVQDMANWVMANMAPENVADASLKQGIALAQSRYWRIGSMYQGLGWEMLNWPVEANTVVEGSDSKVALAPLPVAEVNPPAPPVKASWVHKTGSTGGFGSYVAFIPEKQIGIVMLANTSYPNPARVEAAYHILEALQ
Regarding `COC1=C[C@@H]2CC(=O)N(C2)C1C(=O)OCc1ccc([N+](=O)[O-])cc1` (stereo partly drawn) [(1S,5S)-3-Methoxy-7-oxo-1-aza-bicyclo[3.2.1]oct-3-ene-2-carboxylic acid 4-nitro-benzyl ester], half-maximal inhibition (IC50) was put at 25 µM. This lies in the double-digit micromolar range.

Regarding `COC1=C[C@@H]2CC(=O)N(C2)C1C(=O)O` (stereo partly drawn) [(1S,5S)-3-Methoxy-7-oxo-1-aza-bicyclo[3.2.1]oct-3-ene-2-carboxylic acid], the IC50 was 140 µM.

`COC1=C(C(=O)OCc2ccc([N+](=O)[O-])cc2)N2C[C@@H](CC2=O)C1` [(1S,5R)-3-Methoxy-7-oxo-1-aza-bicyclo[3.2.1]oct-2-ene-2-carboxylic acid 4-nitro-benzyl ester] registered an IC50 of 160 µM.

With `CC[C@@H]1C(=O)N2C[C@@H]1CC(OC)=C2C(=O)O` [(1S,5R,6S)-6-Ethyl-3-methoxy-7-oxo-1-aza-bicyclo[3.2.1]oct-2-ene-2-carboxylic acid], 100 µM corresponded to half-maximal inhibition (IC50).

In turn, `CC[C@@H]1C(=O)N2C[C@@H]1CC(OC)=C2C(=O)OCc1ccc([N+](=O)[O-])cc1` [(1S,5R,6S)-6-Ethyl-3-methoxy-7-oxo-1-aza-bicyclo[3.2.1]oct-2-ene-2-carboxylic acid 4-nitro-benzyl ester] came in with an IC50 of 300 µM. Compared with the last molecule, the IC50 is about 3-fold higher.

A further assay shares this target. As to the kind of experiment: Time dependent inhibition of hydrolysis of nitrocefin after 5 min pre-incubation with P99 beta-lactamases (class C).
Molecule `CC[C@@H]1C(=O)N2C[C@@H]1C=C(OC)C2C(=O)OCc1ccc([N+](=O)[O-])cc1` (stereo partly drawn) [(1S,5R,6S)-6-Ethyl-3-methoxy-7-oxo-1-aza-bicyclo[3.2.1]oct-3-ene-2-carboxylic acid 4-nitro-benzyl ester] yielded an IC50 of 210 µM.

As usually defined, the IC50 is the concentration that gives 50% inhibition. Read a low IC50 as greater potency in that assay.

For the origin of these results see BindingDB's records for doi:10.1016/s0960-894x(04)00332-4 (Aventis Pharma, 2004).
